# Results taken from US20100075965A1, “PI3 KINASE INHIBITORS AND METHODS OF THEIR USE” (Novartis AG, priority 2006, published 2010).
# pEC50, pIC50: −log10 of the molar value.
# Key:
# [1] = system: A2780 cells; test: Viability assay in A2780 (Cell Titer Glo); assay type: cell-based, human; conditions: Homo sapiens; A2780 cells; read-out: A2780 Cell prolif. EC50
# How it was run: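 EC50 values come from Cell Titer Glo luminescence after 72 hrs of compound exposure at 37° C, run in duplicate. A2780 cells were plated at 1,000 per well in DMEM with 10% FBS and dosed with 3-fold serial dilutions.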
# [2] = molecular target: PI3 K Alpha (Homo sapiens, UniProt P42336); test: PI3 kinase phosphorylation assays (homogenous solution phase, one step solid phase, ATP depletion/KinaseGlo); assay type: biochemical; conditions: read-out: PI3K Alpha IC50
# Chain of PI3 K Alpha (P42336 whole entry): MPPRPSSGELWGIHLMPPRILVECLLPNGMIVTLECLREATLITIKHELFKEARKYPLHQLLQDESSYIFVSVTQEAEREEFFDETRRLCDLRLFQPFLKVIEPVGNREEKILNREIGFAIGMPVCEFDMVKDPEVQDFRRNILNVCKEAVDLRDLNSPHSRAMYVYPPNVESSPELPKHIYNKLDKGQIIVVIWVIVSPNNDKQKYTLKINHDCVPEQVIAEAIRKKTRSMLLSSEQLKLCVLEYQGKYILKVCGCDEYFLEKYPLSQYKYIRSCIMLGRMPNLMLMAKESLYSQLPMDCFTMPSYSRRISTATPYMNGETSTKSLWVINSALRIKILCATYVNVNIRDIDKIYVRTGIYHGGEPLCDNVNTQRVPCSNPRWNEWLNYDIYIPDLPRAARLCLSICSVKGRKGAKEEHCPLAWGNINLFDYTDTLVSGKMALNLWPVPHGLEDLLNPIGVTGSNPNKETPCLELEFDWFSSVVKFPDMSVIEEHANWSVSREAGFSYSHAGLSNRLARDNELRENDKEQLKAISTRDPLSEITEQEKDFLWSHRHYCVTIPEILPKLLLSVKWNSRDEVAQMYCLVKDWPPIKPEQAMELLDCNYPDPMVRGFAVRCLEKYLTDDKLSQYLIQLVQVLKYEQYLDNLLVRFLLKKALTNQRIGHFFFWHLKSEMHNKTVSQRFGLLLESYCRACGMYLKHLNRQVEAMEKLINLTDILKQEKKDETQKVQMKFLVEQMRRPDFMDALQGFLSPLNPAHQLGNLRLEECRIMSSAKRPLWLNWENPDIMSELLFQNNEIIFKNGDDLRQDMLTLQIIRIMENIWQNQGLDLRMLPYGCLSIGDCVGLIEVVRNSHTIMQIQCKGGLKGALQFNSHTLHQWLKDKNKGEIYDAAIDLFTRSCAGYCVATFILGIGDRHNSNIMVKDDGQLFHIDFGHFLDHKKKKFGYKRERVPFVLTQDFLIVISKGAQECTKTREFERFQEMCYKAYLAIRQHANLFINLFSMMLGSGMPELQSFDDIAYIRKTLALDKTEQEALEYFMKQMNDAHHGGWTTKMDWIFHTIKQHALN
# Chain of PI3 K Alpha (P27986 whole entry partner): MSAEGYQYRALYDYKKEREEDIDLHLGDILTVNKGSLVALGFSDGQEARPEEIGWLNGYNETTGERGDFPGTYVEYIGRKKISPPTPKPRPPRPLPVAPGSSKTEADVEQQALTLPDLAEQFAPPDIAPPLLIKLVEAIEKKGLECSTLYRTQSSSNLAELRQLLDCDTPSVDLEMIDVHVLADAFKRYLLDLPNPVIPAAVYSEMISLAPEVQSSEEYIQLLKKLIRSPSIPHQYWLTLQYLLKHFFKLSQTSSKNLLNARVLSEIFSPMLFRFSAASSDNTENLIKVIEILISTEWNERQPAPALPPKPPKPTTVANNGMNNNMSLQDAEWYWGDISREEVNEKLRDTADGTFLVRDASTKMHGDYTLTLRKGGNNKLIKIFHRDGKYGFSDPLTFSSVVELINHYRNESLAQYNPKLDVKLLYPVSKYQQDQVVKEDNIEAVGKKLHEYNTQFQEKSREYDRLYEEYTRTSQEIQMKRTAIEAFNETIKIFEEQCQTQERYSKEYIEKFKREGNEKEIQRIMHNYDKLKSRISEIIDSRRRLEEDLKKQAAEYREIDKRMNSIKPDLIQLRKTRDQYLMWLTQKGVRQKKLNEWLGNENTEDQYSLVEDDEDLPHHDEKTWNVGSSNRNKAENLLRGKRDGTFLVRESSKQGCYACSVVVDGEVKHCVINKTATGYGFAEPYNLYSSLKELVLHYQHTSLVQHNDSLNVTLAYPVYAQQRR
Compound,pEC50 [1],pIC50 [2]
Nc1ncc(-c2ccc3nc(NC(=O)[C@@H]4CCCCN4Cc4ccccc4)cn3c2)cc1C(F)(F)F [Example 233],> 5.00,> 6.00
"CC(C)(C)OC(=O)N1CC(C(=O)Nc2cn3cc(-c4cnc(N)c(C(F)(F)F)c4)ccc3n2)C1 [Example 234, tert-butyl 3-(6-(6-amino-5-(trifluoromethyl)pyridin-3-yl)imidazo[1,2-a]pyridin-2-ylcarbamoyl) azetidine-1-carboxylate]",> 5.00,> 6.00
"CCC(=O)Nc1cn2cc(-c3cnc(N)c(C(F)(F)F)c3)ccc2n1 [Example 236, N-(6-(6-amino-5-(trifluoromethyl)pyridin-3-yl)imidazo[1,2-a]pyridin-2-yl)propionamide]",> 5.00,> 6.00
"CN(CC(=O)Nc1cn2nc(-c3cnc(N)c(C(F)(F)F)c3)ccc2n1)C(=O)OC(C)(C)C [Example 237, tert-butyl 2-(6-(6-amino-5-(trifluoromethyl)pyridin-3-yl)imidazo[1,2-b]pyridazin-2-ylamino)-2-oxoethyl(methyl) carbamate]",> 5.00,> 6.00
"Nc1ncc(-c2ccc3nc(NC(=O)CCCn4ccnc4)cn3c2)cc1C(F)(F)F [Example 238, N-(6-(6-amino-5-(trifluoromethyl)pyridin-3-yl)imidazo[1,2-a]pyridin-2-yl)-4-(1H-imidazol-1-yl)butanamide]",> 5.00,> 6.00
"C[C@H](N)C(=O)Nc1cn2nc(-c3cnc(N)c(C(F)(F)F)c3)ccc2n1 [Example 239, (S)-2-amino-N-(6-(6-amino-5-(trifluoromethyl)pyridin-3-yl)imidazo[1,2-b]pyridazin-2-yl)propanamide]",> 5.00,> 6.00
"CCN(CC)Cc1cc(-c2ccc3nc(NC(C)=O)cn3n2)cnc1N [Example 240, N-(6-(6-amino-5-((diethylamino)methyl)pyridin-3-yl)imidazo[1,2-b]pyridazin-2-yl)acetamide]",> 5.00,> 6.00

# Results, then the compound that gave them:
pEC50 [1],pIC50 [2],Compound
> 5.00,> 6.00,"CC(=O)Nc1cn2nc(-c3cnc(N)c(CN4CCCC4)c3)ccc2n1 [Example 242, N-(6-(6-amino-5-(pyrrolidin-1-ylmethyl)pyridin-3-yl)imidazo[1,2-b]pyridazin-2-yl)acetamide]"
> 5.00,> 6.00,"CC(=O)Nc1nc2ccc(-c3cnc(N)c(C(F)(F)F)c3)cn2c1C(N)=O [Example 243, 2-acetamido-6-(6-amino-5-(trifluoromethyl)pyridin-3-yl)imidazo[1,2-a]pyridine-3-carboxamide]"
> 5.00,> 6.00,"CN(CC(=O)Nc1cn2cc(-c3cnc(N)c(C(F)(F)F)c3)ccc2n1)C(=O)OC(C)(C)C [Example 244, tert-butyl 2-(6-(6-amino-5-(trifluoromethyl)pyridin-3-yl)imidazo[1,2-a]pyridin-2-ylamino)-2-oxoethyl(methyl) carbamate]"
> 5.00,> 6.00,"N#Cc1cccc(C(=O)Nc2cn3cc(-c4cnc(N)c(C(F)(F)F)c4)ccc3n2)c1 [Example 245, N-(6-(6-amino-5-(trifluoromethyl)pyridin-3-yl)imidazo[1,2-a]pyridin-2-yl)-3-cyanobenzamide]"
> 5.00,> 6.00,"NCCC(=O)Nc1cn2nc(-c3cnc(N)c(C(F)(F)F)c3)ccc2n1 [Example 246, 3-amino-N-(6-(6-amino-5-(trifluoromethyl)pyridin-3-yl)imidazo[1,2-b]pyridazin-2-yl)propanamide]"
> 5.00,> 6.00,"CC(=O)Nc1nc2ccc(-c3cnc(N)c(C(F)(F)F)c3)cn2c1C#CCNC(=O)OC(C)(C)C [Example 247, tert-butyl 3-(2-acetamido-6-(6-amino-5-(trifluoromethyl)pyridin-3-yl)imidazo[1,2-a]pyridin-3-yl)prop-2-ynylcarbamate]"
